According to ChEMBL document CHEMBL6071177, “Medium-Ring Keto Bislactams with Antischistosomal Activity” (J Med Chem, 2024):
Converted amounts (≈) assume the structure as drawn.

What was measured:
[1] = Lipophilicity, logD of compound at pH 7.4 by HPLC analysis; format: physicochemical; conditions: buffer
[2] = Solubility of compound in 0.01 M HCl at pH 2.0 by nephelometry; format: physicochemical
[3] = Solubility of compound in phosphate buffer at pH 6.5 by nephelometry; format: physicochemical
[4] = Intrinsic clearance in human liver microsomes
[5] = Intrinsic clearance in mouse liver microsomes
Schistosoma mansoni [6] = test: Anti-schistosomal activity against newly transformed Schistosoma mansoni assessed as parasite viability at 10 uM measured after 3 days relative to control; format: functional; conditions: time 3 day
Schistosoma mansoni [7] = test: Anti-schistosomal activity against adult Schistosoma mansoni assessed as parasite viability at 10 uM measured after 3 days relative to control; format: functional; conditions: time 3 day
[8] = Cytotoxicity against rat L6 cells; format: toxicity, cell-based
[9] = Half life in Swiss mouse at 100 mg/kg, po measured upto 48 hrs by LC-MS analysis; format: ADME, organism-based; conditions: in vivo
[10] = AUC (0 to 24 hrs) in Swiss mouse at 100 mg/kg, po measured upto 48 hrs by LC-MS analysis; format: ADME, organism-based; conditions: in vivo
[11] = Cmax in Swiss mouse at 100 mg/kg, po measured upto 48 hrs by LC-MS analysis; format: ADME, organism-based; conditions: in vivo
Schistosoma mansoni [12] = test: Ex vivo anti-schistosomal activity against adult Schistosoma mansoni assessed as inhibition of parasite viability measured after 3 days; format: functional, organism-based; conditions: 72 h

SMILES | logD [1] | solubility kinetic [2] [µM] | solubility kinetic [3] [µM] | CLH [4] [µL/min/mg] | CLH [5] [µL/min/mg] | Activity (Schistosoma mansoni [6]) [%] | Activity (Schistosoma mansoni [7]) [%] | IC50 [8] [µM] | t1/2 [9] [h] | AUC [10] [ng·h/mL] | Cmax [11] [ng/mL] | IC50 (Schistosoma mansoni [12]) [µM]
O=C1CCN2C(=O)c3ccccc3C2C(=O)Nc2ccc(Cl)cc21 (configuration not stated) | 1.8 | 160 (≈ 54.5 µg/mL) | > 320 | 101 | 413 | 38 | 40 | 220 | – | – | – | –
O=C1CCN2C(=O)c3c(F)c(F)c(F)c(F)c3C2C(=O)Nc2ccccc21 (configuration not stated) | 2 | 160 (≈ 60.5 µg/mL) | 160 (≈ 60.5 µg/mL) | – | – | 36 | 30 | 98 | – | – | – | –
COC1CCN2C(=O)c3ccccc3C2C(=O)Nc2ccccc21 (configuration not stated) | 1.4 | 80 (≈ 25.8 µg/mL) | 160 (≈ 51.6 µg/mL) | 23.2 | 90.5 | 25 | 31 | > 310 | – | – | – | –
O=C1CCN2C(=O)CCC2C(=O)Nc2ccccc21 (configuration not stated) | < 0 | 160 (≈ 41.3 µg/mL) | > 320 | 17 | 35 | 13 | 31 | > 390 | – | – | – | –
O=C1CCN2C(=O)c3cc4ccccc4cc3C2C(=O)Nc2ccccc21 (configuration not stated) | 2.3 | > 320 | > 320 | 97.4 | 212 | 48 | 40 | 98 | – | – | – | –
O=C1CCN2C(=O)c3ccccc3C2C(=O)Nc2cc(F)cc(F)c21 (configuration not stated) | 1.7 | 160 (≈ 54.8 µg/mL) | > 320 | 21.5 | 35.6 | 23 | 40 | 200 | – | – | – | –
O=C1CCN2C(=O)c3cc(Cl)c(Cl)cc3C2C(=O)Nc2ccccc21 (configuration not stated) | 2.4 | 80 (≈ 30 µg/mL) | 160 (≈ 60 µg/mL) | – | – | 31 | 40 | 190 | – | – | – | –
COc1cc2c(cc1OC)C1C(=O)Nc3ccccc3C(=O)CCN1C2=O (configuration not stated) | 1.2 | 160 (≈ 58.6 µg/mL) | > 320 | 20.7 | 37.4 | 23 | 38 | 150 | – | – | – | –
COC(=O)[C@@H]1CC(=O)c2ccccc2NC(=O)C2c3ccccc3C(=O)N21 (some centres not stated) | 1.7 | 80 (≈ 29.1 µg/mL) | 160 (≈ 58.3 µg/mL) | 55.5 | 102 | 50 | 27 | > 270 | – | – | – | –
CN1C(=O)C2c3ccccc3C(=O)N2CCC(=O)c2ccccc21 (configuration not stated) | 1.9 | > 320 | > 320 | 71 | 174 | 23 | 39 | > 300 | – | – | – | –
O=C1CCN2C(C(=O)Nc3ccccc31)c1ccccc1S2(=O)=O (configuration not stated) | 1.7 | 80 (≈ 27.4 µg/mL) | 160 (≈ 54.8 µg/mL) | – | – | 27 | 44 | 130 | – | – | – | –
O=C1CCN2C(=O)c3ccccc3C2C(=O)Nc2ccccc21 (configuration not stated) | 1.2 | 160 (≈ 49 µg/mL) | > 320 | 27 | 84 | 51 | 61 | > 330 | 4.4 | 810 | 189 | 2.5
O=C(C1CCCCC1)N1CC(=O)N2CCc3ccccc3C2C1 (configuration not stated) [PRAZIQUANTEL] | 3 | > 320 | > 320 | – | – | 78 | 100 | – | – | – | – | –
O=C1CCN2C(=O)c3ccccc3C2C(=O)Nc2cc(F)ccc21 (configuration not stated) | 1.4 | 160 (≈ 51.9 µg/mL) | 160 (≈ 51.9 µg/mL) | – | – | 15 | 39 | > 300 | – | – | – | –
O=C1CCN2C(=O)[C@H]3CCCC[C@H]3C2C(=O)Nc2ccccc21 (some centres not stated) | 1.4 | > 320 | > 320 | 22.3 | 43.7 | 50 | 25 | 220 | – | – | – | –
CC12C(=O)Nc3ccccc3C(=O)CCN1C(=O)c1ccccc12 (configuration not stated) | 1.7 | 160 (≈ 51.3 µg/mL) | 160 (≈ 51.3 µg/mL) | 34 | 136 | 25 | 35 | > 300 | – | – | – | –
O=C1CCN2C(=O)c3ccccc3C2C(=O)Nc2ccc(F)cc21 (configuration not stated) | 1.4 | 160 (≈ 51.9 µg/mL) | > 320 | 45.4 | 258 | 30 | 40 | > 310 | – | – | – | –
O=C1CCN2C(=O)c3cc(F)c(F)cc3C2C(=O)Nc2ccccc21 (configuration not stated) | 1.7 | > 320 | 160 (≈ 54.8 µg/mL) | – | – | 37 | 34 | > 290 | – | – | – | –
COc1ccc2c(c1)C(=O)CCN1C(=O)c3ccccc3C1C(=O)N2 (configuration not stated) | 1.5 | > 320 | > 320 | 57.1 | 280 | 50 | 42 | 130 | – | – | – | –
O=C1C[C@@H](CO)N2C(=O)c3ccccc3C2C(=O)Nc2ccccc21 (some centres not stated) | 0.8 | 80 (≈ 26.9 µg/mL) | 80 (≈ 26.9 µg/mL) | 19.6 | 61.6 | 38 | 47 | 230 | – | – | – | –
O=C1Nc2ccccc2CCCN2C(=O)c3ccccc3C12 (configuration not stated) | 1.5 | 160 (≈ 46.8 µg/mL) | > 320 | 35.7 | 100 | 48 | 31 | > 340 | – | – | – | –
O=C1CCn2c(nc3ccccc3c2=O)C(=O)Nc2ccccc21 | 1.8 | > 320 | > 320 | 21.7 | 38.2 | 31 | 20 | 52 | – | – | – | –
O=C1Nc2ccccc2C2(O)CCN3C12c1ccccc1S3(=O)=O (configuration not stated) | 1 | 80 (≈ 27.4 µg/mL) | > 160 | 4.6 | 11.6 | 47 | 61 | > 290 | – | – | – | –
O=C1c2ccccc2C23C(=O)Nc4ccccc4C2(O)CCN13 (configuration not stated) | 0.9 | 40 (≈ 12.3 µg/mL) | 40 (≈ 12.3 µg/mL) | < 7 | < 7 | 18 | 48 | > 330 | – | – | – | –
O=c1c2c([nH]c3ccccc13)C1c3ccccc3S(=O)(=O)N1C2 (configuration not stated) | 2 | 40 (≈ 13 µg/mL) | 40 (≈ 13 µg/mL) | 11 | 45.8 | 22 | 47 | 200 | – | – | – | –
CCOC(=O)c1ccc2c(c1)C(=O)CCN1C(=O)c3ccccc3C1C(=O)N2 (configuration not stated) | 2 | 40 (≈ 15.1 µg/mL) | 40 (≈ 15.1 µg/mL) | 55.6 | 118 | 21 | 38 | > 260 | – | – | – | –
CO/N=C1/CCN2C(=O)c3ccccc3C2C(=O)Nc2ccccc21 (configuration not stated) | 1.6 | > 320 | > 320 | 13.2 | 80.3 | 33 | 41 | > 300 | – | – | – | –
